The values below come from patent publication US8309583B2, “Desferrioxamine conjugates, derivatives and analogues” (priority 2007, dated 2012).

Where a name gives a salt, the structure may show the parent alone.

For one data set, the system named is SK-N-MC cells. Description: 59Fe uptake into SK-N-MC cells from 59Fe-loaded transferrin. As to conditions: comparison with DFOB. It counts as cell-based.
Data set [1] has as its system SK-N-MC neuroepithelioma cells. As to the kind of experiment: 59Fe efflux from 59Fe-prelabeled SK-N-MC cells. The following applies: compound 50 μM, 3 h, 37° C.; SK-N-MC cells prelabeled 3 h with 59Fe-loaded transferrin (0.75 μM). It counts as cell-based.
A short description of data set [2]: RP-HPLC relative hydrophobicity / logP correlation. The following applies: C18 column, H2O/ACN 0.1% TFA gradient, free or Fe(III)-loaded ligand.
The conditions of data set [3]: standards used in RP-HPLC logP correlation; cited from earlier work.
The conditions of data set [4]: oral; cited from earlier work.

Regarding `CC(=O)N(O)CCCCCNC(=O)CCC(=O)N(O)CCCCCNC(=O)CCC(=O)N(O)CCCCCNC(=O)C12CC3CC(CC(C3)C1)C2` [adamantane-DFOB, adamantane-desferrioxamine B], the “competition with 59Fe-loaded transferrin for 59Fe, preventing accumulation of Fe within the cell” value in the data set with SK-N-MC cells was “more efficient”. Also, the “Fe efflux (59Fe released from prelabeled cells)” value (shortened to “Fe efflux”) in data set [1] was 28%. Further, the “relative hydrophobicity / water solubility from RP-HPLC retention” value is on record as “least water soluble” in data set [2] and “significantly more hydrophobic” in data set [2] (listed as adamantane-desferrioxamine B).
Take `CC(=O)N(O)CCCCCNC(=O)CCC(=O)N(O)CCCCCNC(=O)CCC(=O)N(O)CCCCCN` [DFOB, desferrioxamine B, reference compound]: the “Fe efflux” value in data set [1] came out at 10.8%.
With `CC(=O)N(O)CCCCCNC(=O)CCC(=O)N(O)CCCCCNC(=O)CCC(=O)N(O)CCCCCNC(=O)COc1ccc(C)cc1` [4-methylphenoxyacetate-DFOB, 4-methylphenoxyacetate-desferrioxamine B], in the data set on SK-N-MC cells, the “competition with 59Fe-loaded transferrin for 59Fe, preventing accumulation of Fe within the cell” value was “more efficient”. In data set [1], the “Fe efflux” value is 31.6%.
In general, logP refers to a log measure of how a compound divides between an organic and an aqueous phase. Turning to `Oc1cccc2ccccc12` [α-naphthol], the logP in data set [3] is on record as 2.7.
As for `CC(=O)N(O)CCCCCNC(=O)CCC(=O)N(O)CCCCCNC(=O)CCC(=O)N(O)CCCCCNC(=O)c1ccc2c(c1)OCCOCCOCCOCCO2` [benzo-15-crown-5-4-carboxylate-DFOB, benzo-15-crown-5-4-carboxylate-desferrioxamine B], the “Fe efflux” value in data set [1] stood at 9.6%.
For the compound `CC(=O)N(O)CCCCCNC(=O)CCC(=O)N(O)CCCCCNC(=O)CCC(=O)N(O)CCCCCN` [Desferal, mesylate salt of desferrioxamine B], the “fraction of an orally administered dose absorbed” value in data set [4] is 15%.
For the compound `CC(=O)N(O)CCCCCNC(=O)CCC(=O)N(O)CCCCCNC(=O)CCC(=O)N(O)CCCCCNC(=O)CCCC[C@@H]1SC[C@@H]2NC(=O)N[C@@H]21` [Biotin-DFOB, biotin-desferrioxamine B], in data set [1], the “Fe efflux” value is listed as 6.6%.
